Reference: the NIST ThermoML archive (doi:10.1016/j.jct.2018.02.022)
Numbers after ± are expanded uncertainties.

Assay: xn = mol fraction of the nth substance listed
Conditions: 92.3 kPa, Liquid; for mass density: Vibrating tube method; for viscosity: Concentric cylinders viscometry; for speed of sound: Frequency=3 MHz, Single path-length method

OCCO [1,2-ethanediol] + O
mass density (293.15 K, x1 = 0.9893): 1113.4 ± 3.2 kg/m3 | mass density (293.15 K, x1 = 1): 1113.72 ± 3 kg/m3 | viscosity (298.15 K, x1 = 0.0494): 1.253 ± 0.18 mPa·s | viscosity (298.15 K, x1 = 0.0986): 1.68 ± 0.24 mPa·s | viscosity (298.15 K, x1 = 0.1483): 2.167 ± 0.3 mPa·s | viscosity (298.15 K, x1 = 0.2072): 2.811 ± 0.39 mPa·s | viscosity (298.15 K, x1 = 0.2466): 3.276 ± 0.46 mPa·s | viscosity (298.15 K, x1 = 0.298): 3.936 ± 0.55 mPa·s | viscosity (298.15 K, x1 = 0.3399): 4.507 ± 0.63 mPa·s | viscosity (298.15 K, x1 = 0.3921): 5.261 ± 0.74 mPa·s | viscosity (298.15 K, x1 = 0.4446): 6.062 ± 0.85 mPa·s | viscosity (298.15 K, x1 = 0.5007): 6.959 ± 0.97 mPa·s | viscosity (298.15 K, x1 = 0.5485): 7.764 ± 1.1 mPa·s | viscosity (298.15 K, x1 = 0.6004): 8.662 ± 1.2 mPa·s | viscosity (298.15 K, x1 = 0.6451): 9.461 ± 1.3 mPa·s | viscosity (298.15 K, x1 = 0.7012): 10.55 ± 1.5 mPa·s | viscosity (298.15 K, x1 = 0.7435): 11.32 ± 1.6 mPa·s | viscosity (298.15 K, x1 = 0.7907): 12.24 ± 1.7 mPa·s | viscosity (298.15 K, x1 = 0.8505): 13.35 ± 1.9 mPa·s | viscosity (298.15 K, x1 = 0.89): 14.12 ± 2 mPa·s | viscosity (298.15 K, x1 = 0.9532): 15.35 ± 2.1 mPa·s | viscosity (298.15 K, x1 = 1): 16.22 ± 2.3 mPa·s | speed of sound (298.15 K, x1 = 0.0101): 1511.9 ± 1.8 m/s | speed of sound (298.15 K, x1 = 0.0201): 1526.3 ± 1.8 m/s | speed of sound (298.15 K, x1 = 0.0302): 1540.2 ± 1.8 m/s | speed of sound (298.15 K, x1 = 0.0407): 1553.8 ± 1.8 m/s | speed of sound (298.15 K, x1 = 0.0506): 1566.2 ± 1.8 m/s | speed of sound (298.15 K, x1 = 0.0605): 1577.9 ± 1.8 m/s | speed of sound (298.15 K, x1 = 0.0704): 1589.2 ± 1.8 m/s | speed of sound (298.15 K, x1 = 0.0801): 1599 ± 1.8 m/s | speed of sound (298.15 K, x1 = 0.0905): 1609.6 ± 1.8 m/s | speed of sound (298.15 K, x1 = 0.0997): 1618 ± 1.8 m/s | speed of sound (298.15 K, x1 = 0.1493): 1655.5 ± 1.8 m/s | speed of sound (298.15 K, x1 = 0.1985): 1681 ± 1.8 m/s | speed of sound (298.15 K, x1 = 0.2487): 1696.5 ± 1.8 m/s | speed of sound (298.15 K, x1 = 0.2998): 1705.8 ± 1.8 m/s | speed of sound (298.15 K, x1 = 0.3318): 1708.7 ± 1.8 m/s | speed of sound (298.15 K, x1 = 0.3981): 1710.4 ± 1.8 m/s | speed of sound (298.15 K, x1 = 0.4521): 1708.8 ± 1.8 m/s | speed of sound (298.15 K, x1 = 0.4934): 1705.9 ± 1.8 m/s | speed of sound (298.15 K, x1 = 0.552): 1700.9 ± 1.8 m/s | speed of sound (298.15 K, x1 = 0.5846): 1697.6 ± 1.8 m/s | speed of sound (298.15 K, x1 = 0.6481): 1691 ± 1.8 m/s | speed of sound (298.15 K, x1 = 0.6773): 1687.8 ± 1.8 m/s | speed of sound (298.15 K, x1 = 0.7421): 1680.8 ± 1.8 m/s | speed of sound (298.15 K, x1 = 0.7811): 1676.5 ± 1.8 m/s | speed of sound (298.15 K, x1 = 0.8497): 1669.3 ± 1.8 m/s | speed of sound (298.15 K, x1 = 0.9002): 1664.3 ± 1.8 m/s | speed of sound (298.15 K, x1 = 0.9059): 1663.8 ± 1.8 m/s | speed of sound (298.15 K, x1 = 0.912): 1663.3 ± 1.8 m/s | speed of sound (298.15 K, x1 = 0.9299): 1661.5 ± 1.8 m/s | speed of sound (298.15 K, x1 = 0.9413): 1660.4 ± 1.8 m/s | speed of sound (298.15 K, x1 = 0.9495): 1659.6 ± 1.8 m/s | speed of sound (298.15 K, x1 = 0.9546): 1659.2 ± 1.8 m/s | speed of sound (298.15 K, x1 = 0.9681): 1658.1 ± 1.8 m/s | speed of sound (298.15 K, x1 = 0.9789): 1657.2 ± 1.8 m/s | speed of sound (298.15 K, x1 = 0.9893): 1656.1 ± 1.8 m/s | speed of sound (298.15 K, x1 = 1): 1654.7 ± 1.8 m/s | mass density (298.15 K, x1 = 0.0101): 1001.54 ± 3.2 kg/m3 | mass density (298.15 K, x1 = 0.0201): 1005.57 ± 3.2 kg/m3 | mass density (298.15 K, x1 = 0.0302): 1009.56 ± 3.2 kg/m3 | mass density (298.15 K, x1 = 0.0407): 1013.5 ± 3.2 kg/m3 | mass density (298.15 K, x1 = 0.0494): 1016.76 ± 3.2 kg/m3 | mass density (298.15 K, x1 = 0.0506): 1017.08 ± 3.2 kg/m3 | mass density (298.15 K, x1 = 0.0605): 1020.55 ± 3.2 kg/m3 | mass density (298.15 K, x1 = 0.0704): 1023.96 ± 3.2 kg/m3 | mass density (298.15 K, x1 = 0.0801): 1027.15 ± 3.2 kg/m3 | mass density (298.15 K, x1 = 0.0905): 1030.37 ± 3.2 kg/m3 | mass density (298.15 K, x1 = 0.0986): 1032.78 ± 3.2 kg/m3 | mass density (298.15 K, x1 = 0.0997): 1033.24 ± 3.2 kg/m3 | mass density (298.15 K, x1 = 0.1483): 1046.12 ± 3.3 kg/m3 | mass density (298.15 K, x1 = 0.1493): 1046.4 ± 3.3 kg/m3 | mass density (298.15 K, x1 = 0.1985): 1056.96 ± 3.3 kg/m3 | mass density (298.15 K, x1 = 0.2072): 1058.86 ± 3.3 kg/m3 | mass density (298.15 K, x1 = 0.2466): 1065.86 ± 3.3 kg/m3 | mass density (298.15 K, x1 = 0.2487): 1066.32 ± 3.3 kg/m3 | mass density (298.15 K, x1 = 0.298): 1073.51 ± 3.3 kg/m3 | mass density (298.15 K, x1 = 0.2998): 1073.79 ± 3.3 kg/m3 | mass density (298.15 K, x1 = 0.3318): 1077.77 ± 3.3 kg/m3 | mass density (298.15 K, x1 = 0.3399): 1078.69 ± 3.3 kg/m3 | mass density (298.15 K, x1 = 0.3921): 1084.09 ± 3.3 kg/m3 | mass density (298.15 K, x1 = 0.3981): 1084.61 ± 3.3 kg/m3 | mass density (298.15 K, x1 = 0.4934): 1092.05 ± 3.3 kg/m3 | mass density (298.15 K, x1 = 0.5007): 1092.56 ± 3.3 kg/m3 | mass density (298.15 K, x1 = 0.5485): 1095.42 ± 3.3 kg/m3 | mass density (298.15 K, x1 = 0.5846): 1097.38 ± 3.3 kg/m3 | mass density (298.15 K, x1 = 0.6004): 1098.09 ± 3.3 kg/m3 | mass density (298.15 K, x1 = 0.6451): 1100.1 ± 3.3 kg/m3 | mass density (298.15 K, x1 = 0.6481): 1100.22 ± 3.3 kg/m3 | mass density (298.15 K, x1 = 0.6773): 1101.43 ± 3.3 kg/m3 | mass density (298.15 K, x1 = 0.7012): 1102.3 ± 3.3 kg/m3 | mass density (298.15 K, x1 = 0.7421): 1103.69 ± 3.3 kg/m3 | mass density (298.15 K, x1 = 0.7435): 1103.76 ± 3.3 kg/m3 | mass density (298.15 K, x1 = 0.7811): 1104.94 ± 3.3 kg/m3 | mass density (298.15 K, x1 = 0.7907): 1105.22 ± 3.3 kg/m3 | mass density (298.15 K, x1 = 0.8497): 1106.83 ± 3.3 kg/m3 | mass density (298.15 K, x1 = 0.8505): 1106.84 ± 3.3 kg/m3 | mass density (298.15 K, x1 = 0.89): 1107.8 ± 3.3 kg/m3 | mass density (298.15 K, x1 = 0.9002): 1108.06 ± 3.3 kg/m3 | mass density (298.15 K, x1 = 0.9059): 1108.17 ± 3.3 kg/m3 | mass density (298.15 K, x1 = 0.912): 1108.29 ± 3.3 kg/m3 | mass density (298.15 K, x1 = 0.9299): 1108.69 ± 3.3 kg/m3 | mass density (298.15 K, x1 = 0.9413): 1108.94 ± 3.3 kg/m3 | mass density (298.15 K, x1 = 0.9495): 1109.13 ± 3.3 kg/m3 | mass density (298.15 K, x1 = 0.9532): 1109.19 ± 3.3 kg/m3 | mass density (298.15 K, x1 = 0.9546): 1109.23 ± 3.3 kg/m3 | mass density (298.15 K, x1 = 0.9681): 1109.49 ± 3.3 kg/m3
